Reference: US9963442B2, “Pyridones as herbicides” (E I DU PONT DE NEMOURS AND COMPANY, priority 2014, dated 2018)

Experiments:
Format in all cases: in vivo
rice (Oryza sativa) = assay: Test B flooded paddy test; set-up: key: 0 = no effect, 100 = complete control; conditions: Flood, 250 g ai/ha applied to paddy water at 2-leaf stage; visually evaluated after 13 to 15 days; scale 0 (no effect) to 100 (complete control)
Protocol: (§1) Plant species in the flooded paddy test selected from rice (Oryza sativa), sedge, umbrella (small-flower umbrella sedge, Cyperus difformis), ducksalad (Heteranthera limosa), and barnyardgrass (Echinochloa crus-galli) were grown to the 2-leaf stage for testing. At time of treatment, test pots were flooded to 3 cm above the soil surface, treated by application of test compounds directly to the paddy water, and then maintained at that water depth for the duration of the test. Treated plants and controls were maintained in a greenhouse for 13 to 15 days, after which time all species were compared to controls and visually evaluated. Plant response ratings, summarized in Table B, are based on a scale of 0 to 100 where 0 is no effect and 100 is complete control. A dash (-) response means no test result.

[1] = system: sedge, umbrella (small-flower umbrella sedge, Cyperus difformis); assay: Test B flooded paddy test; set-up: key: 0 = no effect, 100 = complete control; conditions: Flood, 250 g ai/ha applied to paddy water at 2-leaf stage; visually evaluated after 13 to 15 days; scale 0 (no effect) to 100 (complete control)
Protocol: as §1

[2] = system: ducksalad (Heteranthera limosa); assay: Test B flooded paddy test; set-up: key: 0 = no effect, 100 = complete control; conditions: Flood, 250 g ai/ha applied to paddy water at 2-leaf stage; visually evaluated after 13 to 15 days; scale 0 (no effect) to 100 (complete control)
Protocol: as §1

[3] = system: barnyardgrass (Echinochloa crus-galli); assay: Test B flooded paddy test; set-up: key: 0 = no effect, 100 = complete control; conditions: Flood, 250 g ai/ha applied to paddy water at 2-leaf stage; visually evaluated after 13 to 15 days; scale 0 (no effect) to 100 (complete control)
Protocol: as §1

kochia (Kochia scoparia) [4] = assay: Test A preemergence, directed soil spray; conditions: approx. 10 days
Text: (§2) Seeds of plant species selected from barnyardgrass (Echinochloa crus-galli), kochia (Kochia scoparia), ragweed (common ragweed, Ambrosia elatior), Italian ryegrass (Lolium multiflorum), giant foxtail (Setaria faberii), and pigweed (Amaranthus retroflexus) were planted into a blend of loam soil and sand and treated preemergence with a directed soil spray using test chemicals formulated in a non-phytotoxic solvent mixture which included a surfactant. At the same time, plants selected from these weed species and also wheat (Triticum aestivum), corn (Zea mays), blackgrass (Alopecurus myosuroides), and galium (catchweed bedstraw, Galium aparine) were planted in pots containing the same blend of loam soil and sand and treated with postemergence applications of test chemicals formulated in the same manner. Plants ranged in height from 2 to 10 cm and were in the one- to two-leaf stage for the postemergence treatment. Treated plants and untreated controls were maintained in a greenhouse for approximately 10 days, after which time all treated plants were compared to untreated controls and visually evaluated for injury. Plant response ratings, summarized in Table A, are based on a 0 to 100 scale where 0 is no effect and 100 is complete control. A dash (-) response means no test result.

[5] = system: pigweed (Amaranthus retroflexus); assay: Test A preemergence, directed soil spray; conditions: approx. 10 days
Text: as §2

[6] = system: Italian ryegrass (Lolium multiflorum); assay: Test A preemergence, directed soil spray; conditions: approx. 10 days
Text: as §2

[7] = system: ragweed (common ragweed, Ambrosia elatior); assay: Test A preemergence, directed soil spray; conditions: 125 g ai/ha, approx. 10 days
Text: as §2

[8] = system: giant foxtail (Setaria faberii); assay: Test A preemergence, directed soil spray; conditions: approx. 10 days
Text: as §2

[9] = system: barnyardgrass (Echinochloa crus-galli); assay: Test A preemergence, directed soil spray; conditions: approx. 10 days
Text: as §2

kochia (Kochia scoparia) [10] = assay: Test A postemergence application; conditions: approx. 10 days
Text: as §2

[11] = system: pigweed (Amaranthus retroflexus); assay: Test A postemergence application; conditions: approx. 10 days
Text: as §2

corn (Zea mays) = assay: Test A postemergence application; conditions: approx. 10 days
Text: as §2

[12] = system: blackgrass (Alopecurus myosuroides); assay: Test A postemergence application; conditions: approx. 10 days
Text: as §2

[13] = system: Italian ryegrass (Lolium multiflorum); assay: Test A postemergence application; conditions: approx. 10 days
Text: as §2

[14] = system: galium (catchweed bedstraw, Galium aparine); assay: Test A postemergence application; conditions: approx. 10 days
Text: as §2

[15] = system: ragweed (common ragweed, Ambrosia elatior); assay: Test A postemergence application; conditions: approx. 10 days
Text: as §2

[16] = system: wheat (Triticum aestivum); assay: Test A postemergence application; conditions: approx. 10 days
Text: as §2

[17] = system: giant foxtail (Setaria faberii); assay: Test A postemergence application; conditions: approx. 10 days
Text: as §2

[18] = system: barnyardgrass (Echinochloa crus-galli); assay: Test A postemergence application; conditions: approx. 10 days
Text: as §2

O=c1cccc(Oc2ncc(Cl)cn2)n1-c1ccc(F)cn1 [Compound 9]
Plant response rating, Rice (rice (Oryza sativa)): 0 | Plant response rating, Sedge, Umbrella [1]: 40 | Plant response rating, Ducksalad [2]: 60 | Plant response rating, Barnyardgrass [3]: 0 | Plant response rating (0 to 100 scale, 0 no effect, 100 complete control), Kochia (kochia (Kochia scoparia) [4]; 31 g ai/ha): 20 | Plant response rating (0 to 100 scale, 0 no effect, 100 complete control), Kochia (kochia (Kochia scoparia) [4]; 125 g ai/ha): 50 | Plant response rating (0 to 100 scale, 0 no effect, 100 complete control), Pigweed ([5]; 31 g ai/ha): 50 | Plant response rating (0 to 100 scale, 0 no effect, 100 complete control), Pigweed ([5]; 125 g ai/ha): 80 | Plant response rating (0 to 100 scale, 0 no effect, 100 complete control), Ryegrass, Italian ([6]; 31 g ai/ha): 0 | Plant response rating (0 to 100 scale, 0 no effect, 100 complete control), Ryegrass, Italian ([6]; 125 g ai/ha): 0 | Plant response rating (0 to 100 scale, 0 no effect, 100 complete control), Ragweed [7]: 70 | Plant response rating (0 to 100 scale, 0 no effect, 100 complete control), Foxtail, Giant ([8]; 31 g ai/ha): 10 | Plant response rating (0 to 100 scale, 0 no effect, 100 complete control), Foxtail, Giant ([8]; 125 g ai/ha): 70 | Plant response rating (0 to 100 scale, 0 no effect, 100 complete control), Barnyardgrass ([9]; 31 g ai/ha): 0 | Plant response rating (0 to 100 scale, 0 no effect, 100 complete control), Barnyardgrass ([9]; 125 g ai/ha): 0 | Plant response rating (0 to 100 scale, 0 no effect, 100 complete control), Kochia (kochia (Kochia scoparia) [10]; 31 g ai/ha): 70 | Plant response rating (0 to 100 scale, 0 no effect, 100 complete control), Kochia (kochia (Kochia scoparia) [10]; 125 g ai/ha): 90 | Plant response rating (0 to 100 scale, 0 no effect, 100 complete control), Pigweed ([11]; 31 g ai/ha): 50 | Plant response rating (0 to 100 scale, 0 no effect, 100 complete control), Pigweed ([11]; 125 g ai/ha): 80 | Plant response rating (0 to 100 scale, 0 no effect, 100 complete control), Corn (corn (Zea mays); 31 g ai/ha): 10 | Plant response rating (0 to 100 scale, 0 no effect, 100 complete control), Corn (corn (Zea mays); 125 g ai/ha): 10 | Plant response rating (0 to 100 scale, 0 no effect, 100 complete control), Blackgrass ([12]; 31 g ai/ha): 0 | Plant response rating (0 to 100 scale, 0 no effect, 100 complete control), Blackgrass ([12]; 125 g ai/ha): 10 | Plant response rating (0 to 100 scale, 0 no effect, 100 complete control), Ryegrass, Italian ([13]; 31 g ai/ha): 0 | Plant response rating (0 to 100 scale, 0 no effect, 100 complete control), Ryegrass, Italian ([13]; 125 g ai/ha): 20 | Plant response rating (0 to 100 scale, 0 no effect, 100 complete control), Galium ([14]; 31 g ai/ha): 30 | Plant response rating (0 to 100 scale, 0 no effect, 100 complete control), Galium ([14]; 125 g ai/ha): 60 | Plant response rating (0 to 100 scale, 0 no effect, 100 complete control), Ragweed ([15]; 31 g ai/ha): 20 | Plant response rating (0 to 100 scale, 0 no effect, 100 complete control), Ragweed ([15]; 125 g ai/ha): 40 | Plant response rating (0 to 100 scale, 0 no effect, 100 complete control), Wheat ([16]; 31 g ai/ha): 0 | Plant response rating (0 to 100 scale, 0 no effect, 100 complete control), Wheat ([16]; 125 g ai/ha): 0 | Plant response rating (0 to 100 scale, 0 no effect, 100 complete control), Foxtail, Giant ([17]; 31 g ai/ha): 0 | Plant response rating (0 to 100 scale, 0 no effect, 100 complete control), Foxtail, Giant ([17]; 125 g ai/ha): 20 | Plant response rating (0 to 100 scale, 0 no effect, 100 complete control), Barnyardgrass ([18]; 31 g ai/ha): 0 | Plant response rating (0 to 100 scale, 0 no effect, 100 complete control), Barnyardgrass ([18]; 125 g ai/ha): 10
